The target in the test is T1, human cloned 5-HT6 receptors (Homo sapiens, UniProt P50406).
T1 construct: expressed in transfected cells; host or cells: HeLa cells
The test is described as follows: 5-HT6 binding affinity, [3H]-LSD displacement. The settings on record: membranes of Hela cells expressing human cloned 5-HT6 receptors; [3H]-LSD 3.0 nM; 120 minutes at room temperature. As for the experimental part: The affinity of test compounds for the serotonin 5-HT6 receptor was evaluated in the following manner. Cultured Hela cells expressing human cloned 5-HT6 receptors were harvested and centrifuged at low speed (1,000×g) for 10.0 minutes to remove the culture media. The harvested cells were suspended in half volume of fresh physiological phosphate buffered saline solution and recentrifuged at the same speed. This operation was repeated. The collected cells were then homogenized in ten volumes of 50 mM Tris.HCl (pH 7.4) and 0.5 mM EDTA. The homogenate was centrifuged at 40,000×g for 30.0 min and the precipitate was collected. The obtained pellet was resuspended in 10 volumes of Tris.HCl buffer and recentrifuged at the same speed. The final pellet was suspended in a small volume of Tris.HCl buffer and the tissue protein content was determined in aliquots of 10-25 μl volumes. […] The volume of the suspended cell membranes was adjusted to give a tissue protein concentration of 1.0 mg/ml of suspension. The prepared membrane suspension (10 times concentrated) was aliquoted in 1.0 ml volumes and stored at −70° C. until used in subsequent binding experiments.
The bound complex caught on the filter disk was allowed to air dry and the radioactivity is measured in a Packard TopCount® equipped with six photomultiplier detectors, after the addition of 40.0 μl Microscint®-20 scintillant to each shallow well. The unifilter plate was heat-sealed and counted in a PackardTopCount® with a tritium efficiency of 31.0%.
Specific binding to the 5-HT6 receptor was defined as the total radioactivity bound less the amount bound in the presence of 10.0 μM unlabeled methiothepin. Binding in the presence of varying concentrations of test compound was expressed as a percentage of specific binding in the absence of test compound. The results were plotted as log % bound versus log concentration of test compound. […] A linear regression line of data points was plotted, from which the IC50 value is determined and the Ki value is determined based upon the following equation: Ki=IC50/(1+L/KD) where L was the concentration of the radioactive ligand used and KD is the dissociation constant of the ligand for the receptor, both expressed in nM.

The values below come from patent US7723329B2, “Substituted-3-sulfonylindazole derivatives as 5-hydroxytryptamine-6 ligands” (Wyeth LLC, priority 2005, dated 2010).

Structures can show the parent of a compound that is named as a salt. Bounds are passed on as bounds.

T1 sequence (P50406 whole entry): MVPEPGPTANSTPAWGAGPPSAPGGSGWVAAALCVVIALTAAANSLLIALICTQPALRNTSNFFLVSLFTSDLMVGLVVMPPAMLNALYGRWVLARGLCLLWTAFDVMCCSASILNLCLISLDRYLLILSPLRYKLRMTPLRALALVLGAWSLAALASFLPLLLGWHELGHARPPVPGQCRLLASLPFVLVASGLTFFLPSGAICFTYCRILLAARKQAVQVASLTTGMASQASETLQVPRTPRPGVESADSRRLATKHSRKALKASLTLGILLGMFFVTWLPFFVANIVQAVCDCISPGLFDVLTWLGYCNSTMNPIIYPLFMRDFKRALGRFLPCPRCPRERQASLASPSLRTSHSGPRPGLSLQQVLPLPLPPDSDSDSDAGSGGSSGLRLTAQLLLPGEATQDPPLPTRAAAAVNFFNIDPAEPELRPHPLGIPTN

On to `NCCOc1ccc2[nH]nc(S(=O)(=O)c3cccc4ccccc34)c2c1` [Example 30, 2-[3-(Naphthalene-1-sulfonyl)-1H-indazol-5-yloxy]-ethylamine], for which the inhibition constant (Ki) fell in the range of 0.01 to 10 nM.

With `CCNCCOc1cccc2c(S(=O)(=O)c3cccc4ccccc34)nn(C)c12` [Example 95], the Ki lay within 0.01 to 10 nM. Then `CCCCNCCOc1ccc2[nH]nc(S(=O)(=O)c3cccc4ccccc34)c2c1` [Example 34, Butyl-{2-[3-(naphthalene-1-sulfonyl)-1H-indazol-5-yloxy]-ethyl}-amine], with 0.01 to 10 nM.

Regarding `O=S(=O)(c1cccc2ccccc12)c1n[nH]c2ccc(OCCCN3CCCCC3)cc12` [Example 24, 3-(Naphthalene-1-sulfonyl)-5-(3-piperidin-1-yl-propoxy)-1H-indazole], the Ki was 0.01 to 10 nM. In the case of `CNCCOc1cccc2c(S(=O)(=O)c3ccccc3)nn(Cc3cccc(Cl)c3)c12` [Example 82], the Ki was 11 to 25 nM. The value for `CCNCCCOc1cccc2c(S(=O)(=O)c3cccc4ccccc34)nn(Cc3cccc(Cl)c3)c12` [Example 129] was over 45 nM.

Consider `NCCCc1ccc2[nH]nc(S(=O)(=O)c3ccccc3)c2c1` [Example 180, {3-[3-(Phenylsulfonyl)-1H-indazol-5-yl]propyl}amine trifluoroacetate], for which the Ki was in the range of 11 to 25 nM. With `CCN(CC)CCOc1cccc2c(S(=O)(=O)c3cccc4ccccc34)nn(C)c12` [Example 97], the Ki lay within 0.01 to 10 nM. As for `CNCCOc1ccc2[nH]nc(S(=O)(=O)c3ccccc3)c2c1` [Example 12, [2-(3-Benzenesulfonyl-1H-indazol-5-yloxy)-ethyl]-methyl-amine], the Ki fell in the range of 11 to 25 nM.

Take `CCNCCOc1cc(F)cc2c(S(=O)(=O)c3cccc4ccccc34)nn(Cc3cccc(Cl)c3)c12` [Example 108]: the Ki was over 45 nM.

For `CN(C)CCOc1cc(F)cc2c(S(=O)(=O)c3cccc4ccccc34)n[nH]c12` [Example 115], the Ki was in the range of 11 to 25 nM. The value for `CCNCCCCOc1ccc2[nH]nc(S(=O)(=O)c3cccc4ccccc34)c2c1` [Example 63] was 0.01 to 10 nM; that for `CCN(CC)CCCOc1cccc2c(S(=O)(=O)c3cccc4ccccc34)nn(Cc3cccc(Cl)c3)c12` [Example 131] was 11 to 25 nM; that for `CC(C)NCCOc1ccc2[nH]nc(S(=O)(=O)c3cccc4ccccc34)c2c1` [Example 28, Isopropyl-{2-[3-(naphthalene-1-sulfonyl)-1H-indazol-5-yloxy]-ethyl}-amine] was 0.01 to 10 nM. Regarding `NCCCCOc1ccc2[nH]nc(S(=O)(=O)c3cccc4ccccc34)c2c1` [Example 68, (4-{[3-(1-naphthylsulfonyl)-1H-indazol-5-yl]oxy}butyl)amine], the Ki lay in the range of 0.01 to 10 nM. The value for `CN(C)CCOc1ccc2c(c1)c(S(=O)(=O)c1cccc3ccccc13)nn2Cc1ccccc1` [Example 51, {2-[1-Benzyl-3-(naphthalene-1-sulfonyl)-1H-indazol-5-yloxy]-ethyl}-dimethyl-amine] was 11 to 25 nM; that for `NCCC(=O)Nc1cccc2c(S(=O)(=O)c3cccc4ccccc34)n[nH]c12` [Example 164, 3-Amino-N-[3-(naphthalene-1-sulfonyl)-1H-indazol-7-yl]-propionamide hydrochloride] was 0.01 to 10 nM; that for `O=S(=O)(c1cccc2ccccc12)c1n[nH]c2ccc(OCCCNC3CC3)cc12` [Example 20, Cyclopropyl-{3-[3-(naphthalene-1-sulfonyl)-1H-indazol-5-yloxy]-propyl}-amine] was 0.01 to 10 nM. Then `CC(C)NCCOc1ccc2[nH]nc(S(=O)(=O)c3ccccc3)c2c1` [Example 6, [2-(3-Benzenesulfonyl-1H-indazol-5-yloxy)-ethyl]-isopropyl-amine], with 11 to 25 nM; and `CN(C)CCOc1ccc2c(S(=O)(=O)c3cccc4ccccc34)n[nH]c2c1` [Example 148], with over 45 nM.

`CNCCOc1ccc2c(c1)c(S(=O)(=O)c1cccc3ccccc13)nn2Cc1ccccc1` [Example 48, {2-[1-Benzyl-3-(naphthalene-1-sulfonyl)-1H-indazol-5-yloxy]-ethyl}-methyl-amine]: the Ki fell in the range of 26 to 35 nM. The value for `CCN(CC)CCC(=O)Nc1ccc2c(S(=O)(=O)c3cccc4ccccc34)n[nH]c2c1` [Example 169, 3-Diethylamino-N-[3-(naphthalene-1-sulfonyl)-1H-indazol-6-yl]-propionamide hydrochloride] was over 45 nM; that for `CN1CCN(Cc2ccc3[nH]nc(S(=O)(=O)c4cccc5ccccc45)c3c2)CC1` [Example 196] was 0.01 to 10 nM. Then `NCCCCc1ccc2[nH]nc(S(=O)(=O)c3ccccc3)c2c1` [Example 181, {4-[3-(Phenylsulfonyl)-1H-indazol-5-yl]butyl}amine hydrochloride], with 26 to 35 nM. Then `CC(C)NCCOc1ccc2c(c1)c(S(=O)(=O)c1cccc3ccccc13)nn2C` [Example 45, Isopropyl-{2-[1-methyl-3-(naphthalene-1-sulfonyl)-1H-indazol-5-yloxy]-ethyl}-amine], with 0.01 to 10 nM.

With `O=S(=O)(c1cccc2ccccc12)c1n[nH]c2c(OCCN3CCCCC3)cc(F)cc12` [Example 117], the Ki lay within 0.01 to 10 nM. The molecule `CCN(CC)CCOc1ccc2c(c1)c(S(=O)(=O)c1cccc3ccccc13)nn2Cc1cccc(Cl)c1` [Example 56, {2-[1-(3-Chloro-benzyl)-3-(naphthalene-1-sulfonyl)-1H-indazol-5-yloxy]-ethyl}-diethyl-amine] displayed a Ki of over 45 nM.

For the molecule `CNCCOc1cccc2c(S(=O)(=O)c3cccc4ccccc34)nn(Cc3cccc(Cl)c3)c12` [Example 70, (2-{[1-(3-Chlorobenzyl)-3-(1-naphthylsulfonyl)-1-H-indazol-7-yl]oxy}ethyl) methylamine], the inhibition constant (Ki) was 11 to 25 nM. The value for `CN(C)CCC(=O)Nc1cccc2c(S(=O)(=O)c3cccc4ccccc34)n[nH]c12` [Example 162, 3-Dimethylamino-N-[3-(naphthalene-1-sulfonyl)-1H-indazol-7-yl]-propionamide hydrochloride] was 0.01 to 10 nM; that for `O=C(c1ccc2[nH]nc(S(=O)(=O)c3cccc4ccccc34)c2c1)N1CCNCC1` [Example 202, 3-(1-Naphthylsulfonyl)-5-(piperazin-1 ylcarbonyl)-1H-indazole] was over 45 nM. The value for `CC(N)CNc1ccc2[nH]nc(S(=O)(=O)c3cccc4ccccc34)c2c1` (centres unmarked) [Example 159, N1-[3-(Naphthalene-1-sulfonyl)-1H-indazol-5-yl]-propane-1,2-diamine hydrochloride] was 11 to 25 nM. The value for `NCCCOc1ccc2[nH]nc(S(=O)(=O)c3cccc4ccccc34)c2c1` [Example 26, 3-[3-(Naphthalene-1-sulfonyl)-1H-indazol-5-yloxy]-propylamine] was 0.01 to 10 nM; that for `O=S(=O)(c1cccc2ccccc12)c1n[nH]c2c(OCCCN3CCCCC3)cccc12` [Example 138] was 36 to 45 nM; that for `NCCNCc1ccc2[nH]nc(S(=O)(=O)c3cccc4ccccc34)c2c1` [Example 155, N{[3-(1-Naphthylsulfonyl)-1H-indazol-5yl]methyl}ethane-1.2-diamine] was 11 to 25 nM. As for `O=S(=O)(c1cccc2ccccc12)c1n[nH]c2ccc(OCCN3CCCC3)cc12` [Example 37, 3-(Naphthalene-1-sulfonyl)-5-(2-pyrrolidin-1-yl-ethoxy)-1H-indazole], the Ki is 0.01 to 10 nM. Then `O=S(=O)(c1ccccc1)c1n[nH]c2ccc(OCCN3CCCC3)cc12` [Example 11, 3-Benzenesulfonyl-5-(2-pyrrolidin-1-yl-ethoxy)-1H-indazole], with 0.01 to 10 nM; and `CCN(CC)CCCOc1ccc2[nH]nc(S(=O)(=O)c3cccc4ccccc34)c2c1` [Example 18, Diethyl-{3-[3-(naphthalene-1-sulfonyl)-1H-indazol-5-yloxy]-propyl}-amine], with 0.01 to 10 nM; and `CCCCNCCCOc1ccc2[nH]nc(S(=O)(=O)c3cccc4ccccc34)c2c1` [Example 19, Butyl-{3-[3-(naphthalene-1-sulfonyl)-1H-indazol-5-yloxy]-propyl}-amine], with 0.01 to 10 nM. The value for `Cn1nc(S(=O)(=O)c2cccc3ccccc23)c2cc(OCCN3CCCC3)ccc21` [Example 46, 1-Methyl-3-(naphthalene-1-sulfonyl)-5-(2-pyrrolidin-1-yl-ethoxy)-1H-indazole] was 0.01 to 10 nM; that for `CNCCCOc1ccc2[nH]nc(S(=O)(=O)c3cccc4ccccc34)c2c1` [Example 15, Methyl-{3-[3-(naphthalene-1-sulfonyl)-1H-indazol-5-yloxy]-propyl}-amine] was 0.01 to 10 nM. In the case of `NCCOc1ccc2[nH]nc(S(=O)(=O)c3ccccc3)c2c1` [Example 13, 2-(3-Benzenesulfonyl-1H-indazol-5-yloxy)-ethylamine], the Ki is 36 to 45 nM.
